In PubChem BioAssay (NCI):
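Test compounds were applied to cells in 96-well plates for 48 hours at 5 doses. Here, GI50 denotes the concentration required for 50% inhibition of growth. TGI: total growth inhibition.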

How the values were obtained:
Experiment in all cases: DTP human tumour cell line panel, 48 h
[1] = system: KM12 colon
[2] = system: NCI/ADR-RES ovarian
[3] = system: EKVX NSCLC
[4] = system: HT29 colon
[5] = system: RXF 393 renal
[6] = system: NCI-H522 lung
[7] = system: OVCAR-8 ovarian
[8] = system: CCRF-CEM leukemia
[9] = system: PC-3 prostate
[10] = system: NCI-H460 lung
[11] = system: HOP-62 NSCLC
[12] = system: MOLT-4 leukemia
[13] = system: SF-268 CNS
[14] = system: OVCAR-5 ovarian
[15] = system: T-47D breast
[16] = system: RPMI-8226 leukemia
[17] = system: DU-145 prostate
[18] = system: HCC-2998 colon
[19] = system: MALME-3M melanoma
[20] = system: MDA-MB-435
[21] = system: ACHN renal
[22] = system: MDA-MB-231 breast
[23] = system: SR leukemia
[24] = system: CAKI-1 renal
[25] = system: OVCAR-4 ovarian
[26] = system: UACC-257 melanoma
[27] = system: HCT-15 colon
[28] = system: K-562 leukemia
[29] = system: SF-295 CNS
[30] = system: HL-60(TB) leukemia
[31] = system: OVCAR-3 ovarian
[32] = system: U251 CNS
[33] = system: SNB-19 CNS
[34] = system: HOP-92 NSCLC
[35] = system: HS 578T breast
[36] = system: SW-620 colon
[37] = system: M14 melanoma
[38] = system: 786-0 renal
[39] = system: LOX IMVI melanoma
[40] = system: COLO 205 colon
[41] = system: UACC-62 melanoma
[42] = system: SK-MEL-28 melanoma
[43] = system: IGROV1 ovarian
[44] = system: SNB-75 CNS
[45] = system: MCF7 breast
[46] = system: NCI-H226 lung
[47] = system: A498 renal
[48] = system: SK-OV-3 ovarian
[49] = system: SK-MEL-2 melanoma
[50] = system: TK-10 renal
[51] = system: A549 NSCLC
[52] = system: BT-549 breast
[53] = system: SN12C renal
[54] = system: SF-539 CNS
[55] = system: UO-31 renal
[56] = system: HCT-116 colon
[57] = system: SK-MEL-5 melanoma

Work on `COCCOc1ccc2ncc(C#Cc3cncc(C(=O)Nc4ccc(CN5CCN(C)CC5)c(C(F)(F)F)c4)c3)n2n1` yielded a GI50 [1] of 0.014 µM, a TGI [1] of 2.72 µM and a GI50 [2] of 1.21 µM. For the same molecule, the TGI [2] was 3.41 µM, the GI50 [3] was 0.951 µM and the TGI [3] was 7.75 µM. The GI50 [4] was 0.372 µM, the TGI [4] was 3.09 µM and the GI50 [5] was 0.733 µM. It also gave a TGI [5] of 1.41 µM, a GI50 [6] of 0.62 µM and a TGI [6] of 1.45 µM. It also gave a GI50 [7] of 0.874 µM, a TGI [7] of 2.22 µM and a GI50 [8] of 0.7 µM. For the same molecule, the TGI [8] was 4.63 µM, the GI50 [9] was 1.79 µM and the TGI [9] was 8.29 µM. For the same molecule, the GI50 [10] was 0.708 µM, the TGI [10] was 1.47 µM and the GI50 [11] was 0.997 µM. The TGI [11] was 4.37 µM, the GI50 [12] was 0.696 µM and the TGI [12] was 3.73 µM. It also gave a GI50 [13] of 0.787 µM, a TGI [13] of 2.13 µM and a GI50 [14] of 0.663 µM. It also gave a TGI [14] of 6.07 µM, a GI50 [15] of 2.72 µM and a TGI [15] of 12.5 µM. The GI50 [16] was 0.874 µM, the TGI [16] was 2.59 µM and the GI50 [17] was 1.06 µM. For the same molecule, the TGI [17] was 4.76 µM, the GI50 [18] was 1.18 µM and the TGI [18] was 7.54 µM. It also gave a GI50 [19] of 0.22 µM, a TGI [19] of 0.868 µM and a GI50 [20] of 0.421 µM. It also gave a TGI [20] of 4.44 µM, a GI50 [21] of 0.364 µM and a TGI [21] of 2.01 µM. For the same molecule, the GI50 [22] was 0.274 µM, the TGI [22] was 1.24 µM and the GI50 [23] was 0.687 µM. It also gave a TGI [23] of 2.48 µM, a GI50 [24] of 0.484 µM and a TGI [24] of 2.92 µM. For the same molecule, the GI50 [25] was 0.84 µM, the TGI [25] was 8.45 µM and the GI50 [26] was 1.2 µM. The TGI [26] was 5.69 µM, the GI50 [27] was 0.549 µM and the TGI [27] was 2.51 µM. It also gave a GI50 [28] of 0.005 µM, a TGI [28] of 0.937 µM and a GI50 [29] of 3.36 µM. It also gave a TGI [29] of 12.7 µM, a GI50 [30] of 0.311 µM and a TGI [30] of 1.48 µM. The GI50 [31] was 1.09 µM, the TGI [31] was 7.44 µM and the GI50 [32] was 2.19 µM. For the same molecule, the TGI [32] was 10.2 µM, the GI50 [33] was 3.92 µM and the TGI [33] was 15 µM. The GI50 [34] was 0.142 µM, the TGI [34] was 0.628 µM and the GI50 [35] was 0.598 µM. It also gave a TGI [35] of 2.64 µM, a GI50 [36] of 0.402 µM and a TGI [36] of 1.35 µM. The GI50 [37] was 0.265 µM, the TGI [37] was 1.13 µM and the GI50 [38] was 0.802 µM. For the same molecule, the TGI [38] was 1.64 µM, the GI50 [39] was 0.367 µM and the TGI [39] was 1.04 µM. For the same molecule, the GI50 [40] was 0.529 µM, the TGI [40] was 1.54 µM and the GI50 [41] was 1.5 µM. It also gave a TGI [41] of 7.66 µM, a GI50 [42] of 0.676 µM and a TGI [42] of 1.72 µM. For the same molecule, the GI50 [43] was 0.351 µM, the TGI [43] was 2.35 µM and the GI50 [44] was 0.272 µM. It also gave a TGI [44] of 1.26 µM, a GI50 [45] of 0.166 µM and a TGI [45] of 0.968 µM. The GI50 [46] was 0.271 µM, the TGI [46] was 1.54 µM and the GI50 [47] was 1.17 µM. It also gave a TGI [47] of 2.25 µM, a GI50 [48] of 2.07 µM and a TGI [48] of 6.4 µM. The GI50 [49] was 0.403 µM, the TGI [49] was 1.13 µM and the GI50 [50] was 1.59 µM. For the same molecule, the TGI [50] was 5.86 µM, the GI50 [51] was 0.885 µM and the TGI [51] was 2.61 µM. The GI50 [52] was 1.54 µM, the TGI [52] was 4.28 µM and the GI50 [53] was 0.516 µM. It also gave a TGI [53] of 3.67 µM, a GI50 [54] of 0.209 µM and a TGI [54] of 3.09 µM. For the same molecule, the GI50 [55] was 0.622 µM, the TGI [55] was 3.19 µM and the GI50 [56] was 0.227 µM. For the same molecule, the TGI [56] was 1.02 µM, the GI50 [57] was 1.7 µM and the TGI [57] was 7.26 µM.
